Results as given in patent US20240002470A1, “Method for separation and/or detection and/or in vitro quantification of infectious compounds in biological material” (priority 2020, published 2024).

What was measured:
[1] = test system: ISAV virus (Infectious salmon anemia virus); assay: Capture of ISAV virus on magnetic microbeads coated with pepβ2GPI, RT-PCR quantification; type: binding; conditions: for % compared to β2GPI: ISAV copies captured relative to β2GPI beads; for ISAV copies: virus captured on coated beads from culture supernatant
Description: The virus used is the ISAV virus (Infectious salmon anemia virus), responsible for anemia in salmon, originating from a culture supernatant.
The microbeads, intended to fix the virus, which are used are magnetic microbeads sold by the company MERCK under the name “Estapor® super-paramagnetic microspheres” which have a diameter between […].
(§1) The pepβ2GPI were grafted onto the microbeads according to the supplier's recommendations. In summary, the microbeads are suspended in phosphate buffer at a pH of 6.0. The beads are then activated, for 15 minutes, in the presence of 1-ethyl-3-(3-Dimethylaminopropyl) carbodiimide and N-hydroxysuccinimide. After washing with HCl, 2 mM, the beads are suspended in a phosphate buffer at a pH of 7.5, containing the pepβ2GPI. The concentration of pepβ2GPI in this coupling buffer is 20 mg/L; the microbeads are incubated in the buffer with gentle and constant shaking at a temperature of 25° C. for 3 hours. The microbeads are then centrifuged at 1,500 rpm and the supernatant is removed; the centrifugation pellet is suspended in the same buffer as that used for the coupling of pepβ2GPI, which forms the suspension of microbeads coated with pepβ2GPI which we want to test.
(§2) One hundred microliters of viral culture supernatant to be studied are placed in an Eppendorf tube with 900 microliters of Tris buffer at a pH of 7.5 and 10 microliters of microbeads. The tubes are shaken horizontally to mix the microbeads well, and each tube is incubated at 37° C. or at room temperature (RT=22° C.) for 30 minutes. In each tube, the microbeads are then separated from the liquid phase by means of a magnet, placed externally against the wall of the tube, and the viral RNA is extracted. The beads are brought into contact with a viral lysis buffer, included in an RNA extraction kit: QIAamp RNA viral kit, sold by QIAGEN and the viral RNA is isolated according to the seller's recommendations.
The RNA is then transcribed into complementary DNA, in the presence of reverse transcriptase, according to the following protocol:
Finally, the complementary DNA (cDNA) is amplified by chain reaction using a polymerase and quantified according to the following protocol: […]

[2] = test system: IPN virus (Infectious pancreatic necrosis virus); assay: Capture of IPN virus on magnetic microbeads coated with pepβ2GPI, RT-PCR quantification; type: binding; conditions: for % compared to β2GPI: IPN copies captured relative to β2GPI beads; for IPN Copies: virus captured on coated beads from culture supernatant
Method: as §1, §2
The virus used is the IPN virus (Infectious pancreatic necrosis virus), responsible for necrosis of the pancreas in salmon, originating from a culture supernatant. The same protocol as described in example 1 was carried out.

[3] = test system: HCV virus (hepatitis C virus); assay: Capture of HCV virus from patient plasma on magnetic microbeads coated with pepβ2GPI, RT-PCR quantification; type: binding; conditions: for % compared to β2GPI: HCV copies captured relative to β2GPI beads; for HCV/run copies: per run, virus captured on coated beads from plasma of patients
Method: as §1, §2
The virus used is the HCV virus (hepatitis C virus), present in the plasma of patients. The same protocol as described in example 1 was carried out.

[4] = test system: E. coli B6054; assay: Capture of E. coli B6054 on magnetic microbeads, culture on TS agar and counting; type: binding, Escherichia coli; conditions: E. coli B6054 colonies from captured beads
[5] = test system: E. coli ATCC 8739; assay: Capture of E. coli ATCC 8739 on magnetic microbeads, culture and counting; type: binding, Escherichia coli; conditions: E. coli ATCC 8739 colonies from captured beads
Method: (§3) One ml of the culture of bacteria to be studied is placed in a hemolysis tube. 100 μl of buffer are added, the trade name of which is TTGB, then 20 μl of microbeads. The tube is stirred horizontally, to mix the microbeads well, and incubated at 37° C. or at room temperature (TA=22° C.) for half an hour. At the end of the incubation, the microbeads are separated from the liquid phase by means of a magnet, placed externally against the wall of the tube. The microbeads are then washed twice with LB medium and then resuspended in 1 ml of BTS culture medium (Tripticase-Soy broth) having the following formulation: […]
(§4) This culture medium is brought to a boil and then autoclaved, to make it sterile, before use. 20 μl of the microbead suspension are taken and spread in a Petri dish containing TS agar (Trypticase-Soya agar) having the following formulation: […]
(§5) The Petri dishes are incubated at +37° C. for 24 hours. The bacteria that have grown on the agar are then counted.
The used bacteria were obtained from a collection strain of Escherichia coli (E. coli), ATCC 8739. The same experiment as that described in the previous example was carried out.

[6] = test system: S. aureus, SA 378804; assay: Capture of S. aureus SA 378804 on magnetic microbeads, culture and counting; type: binding, Staphylococcus aureus; conditions: S. aureus SA 378804 colonies from captured beads
Method: as §3, §4, §5
The used bacterium is a strain of Staphylococcus aureus (S. aureus), SA 378804, isolated from the wound of the foot of a diabetic person, Sotto et al., Diabetes Care (2008) 31 (12), p. 2318-24. The same experiment as that described in the previous example was carried out.

[7] = test system: HSV virus (Herpes Simplex virus); assay: Capture of HSV virus on magnetic microbeads coated with pepβ2GPI; type: binding
Method: as §1, §2
(§6) The viruses tested are the HSV virus (Herpes Simplex virus) and the BVDV virus (Bovine viral Diarrhea Virus).
(§7) The same protocol as that described in example 1 was carried out.

[8] = test system: BVDV virus (Bovine viral Diarrhea Virus); assay: Capture of BVDV virus on magnetic microbeads coated with pepβ2GPI; type: binding
Method: as §1, §2, §6, §7

[9] = test system: E. coli ATCC 11105; assay: Capture on magnetic microbeads coated with pepβ2GPI: C3 E. coli ATCC 11105; type: binding
Method: (§8) To test the interaction of microbeads coated with β2GPI and the peptides derived from them, with bacteria present in the blood, 1 ml of blood culture is taken from each sample and placed in a 15 ml tube. 20 μl of microbeads are added and each tube is incubated at 37° C. with horizontal shaking. The tubes are then placed in a magnetic field which retains the microbeads on the wall and the supernatant is removed. The microbeads are then washed twice with sterile PBS, of the same composition as previously indicated; the microbeads are then resuspended in 150 μl of BTS culture medium. Two methods for detecting bacteria captured by microbeads were used: culture on TS agar and PCR For the detection of the bacterial capture by culture, 50 μl of the suspension of microbeads thus obtained are taken and they are spread out in a Petri dish containing TS agar. Petri dishes are incubated in an oven at 37° C. for 24 hours. The bacteria that have grown on the agar were then counted.
(§9) The tested bacteria are: C3 E. coli ATCC 11105, C5 S. aureus ATCC 6538, H61 E. coli B6054, C1: E. coli ATCC 8739, H46: C. albicans 1 and H: 60 SCN
(§10) The same protocol and primers as those described in example 9 were carried out.

[10] = test system: S. aureus ATCC 6538; assay: Capture on magnetic microbeads coated with pepβ2GPI: C5 S. aureus ATCC 6538; type: binding
Method: as §8, §9, §10

[11] = test system: E. coli B6054; assay: Capture on magnetic microbeads coated with pepβ2GPI: H61 E. coli B6054; type: binding
Method: as §8, §9, §10

[12] = test system: E. coli; conditions: cited from earlier work
[13] = test system: S. pyogenes; conditions: cited from earlier work
[14] = test system: S. aureus; conditions: cited from earlier work
[15] = test system: E. coli ATCC 8739; assay: Capture on magnetic microbeads coated with pepβ2GPI: C1 E. coli ATCC 8739; type: binding
Method: as §8, §9, §10

[16] = test system: C. albicans 1; assay: Capture on magnetic microbeads coated with pepβ2GPI: H46 C. albicans 1; type: binding
Method: as §8, §9, §10

[17] = test system: SCN; assay: Capture on magnetic microbeads coated with pepβ2GPI: H: 60 SCN; type: binding
Method: as §8, §9, §10

[18] = molecular target: T1, binding of β2GPI to LPS (Homo sapiens, UniProt P02749); conditions: cited from earlier work
T1 sequence (P02749 20-345): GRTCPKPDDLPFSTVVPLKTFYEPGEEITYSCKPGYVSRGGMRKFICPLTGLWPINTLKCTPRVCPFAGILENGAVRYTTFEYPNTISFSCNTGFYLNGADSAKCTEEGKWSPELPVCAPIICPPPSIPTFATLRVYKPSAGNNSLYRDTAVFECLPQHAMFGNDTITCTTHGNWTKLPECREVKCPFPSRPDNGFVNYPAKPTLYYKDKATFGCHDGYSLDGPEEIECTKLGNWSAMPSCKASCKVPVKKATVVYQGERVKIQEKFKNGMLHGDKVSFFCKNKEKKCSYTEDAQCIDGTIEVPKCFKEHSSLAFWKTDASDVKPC

Row | Substance | % compared to β2GPI [1] | ISAV copies [1] | % compared to β2GPI [2] | IPN Copies [2] | % compared to β2GPI [3] | HCV/run copies [3] | % compared to β2GPI [4] | % compared to β2GPI [5] | % compared to β2GPI [6] | Capture of HSV virus [7] | Capture of BVDV virus [8] | Capture of C3 E. coli ATCC 11105 [9] | Capture of C5 S. aureus ATCC 6538 [10] | Capture of H61 E. coli B6054 [11] | further results
1 | CKNKEKKC [Peptide P2] | (112%) | 62 700 copies | (50%) | 6 copies | (72%) | 81 copies | 31% | 15% | 104% | 97% | 181% | 30% | 80% | 104% | –
2 | CKNKEKKC [Peptide P3] | (117%) | 65 550 copies | – | – | – | – | – | – | – | – | 15% | 42% | 65% | 88% | –
3 | CKNKEKKCGGSSLAFWK [Peptide P4] | (110%) | 61 150 copies | (100%) | 12 copies | (73%) | 83 copies | 44% | 18% | 79% | 357% | 73% | 26% | 73% | 85% | –
4 | CKNKEKKCS [CNK8] | – | – | – | – | – | – | – | – | – | – | – | – | – | – | bactericidal effect [12]: have a bactericidal effect; bactericidal effect [13]: have a bactericidal effect; bactericidal effect [14]: This effect is less
5 | GDKVSFFCKNKEKKCS [GDK15] | – | – | – | – | – | – | – | – | – | – | – | – | – | – | bactericidal effect [12]: have a bactericidal effect; bactericidal effect [13]: have a bactericidal effect; bactericidal effect [14]: This effect is less
6 | H-(SSLAFWK)2-K—NH2 [Peptide P10] | (105%) | 58 400 copies | (67%) | 8 copies | (87%) | 98 copies | 34% | 12% | – | 119% | 208% | 45% | 66% | 79% | Capture of C1: E. coli ATCC 8739 [15]: 6.17%; Capture of H46: C. albicans 1 [16]: 97.9%; Capture of H: 60 SCN [17]: 49.0%
7 | LAFWKTDA | – | – | – | – | – | – | – | – | – | – | – | – | – | – | inhibiting the binding of β2GPI to LPS [18]: capable of inhibiting the binding of β2GPI to LPS
8 | SSLAFWK [Peptide P1] | (130%) | 72 300 copies | (117%) | 14 copies | (163%) | 184 copies | 92% | 68% | 115% | – | 7% | 30% | 56% | 71% | –
